Measurements reported in patent publication US12662476B2, “Herbicidal thiazole compounds” (SYNGENTA CROP PROTECTION AG, priority 2019, dated 2026).

Tests used:
Type in all cases: in vivo
[1] = system: Amaranthus retoflexus (AMARE); test: Post-emergence herbicidal glasshouse test; settings: sprayed after 8 days cultivation, 250 g/ha, evaluated after 13 days, five-point scale
Method: (§1) Seeds of a variety of test species are sown in standard soil in pots Amaranthus retoflexus (AMARE), Echinochloa crus-galli (ECHCG), Setaria faberi (SETFA)). After cultivation for one day (pre-emergence) or after 8 days cultivation (post-emergence) under controlled conditions in a glasshouse (at 24/16° C., day/night; 14 hours light; 65% humidity), the plants are sprayed with an aqueous spray solution derived from the formulation of the technical active ingredient in acetone/water (50:50) solution containing 0.5% Tween™ 20 (polyoxyethylene sorbitan monolaurate, CAS RN 9005-64-5). Compounds are applied at 250 g/ha unless otherwise stated. The test plants are then grown in a glasshouse under controlled conditions in a glasshouse (at 24/16° C., day/night; 14 hours light; 65% humidity) and watered twice daily. After 13 days for pre- and post-emergence, the test is evaluated for the percentage damage caused to the plant. The biological activities are shown in the following table on a five-point scale (5=81-100%; 4=61-80%; 3=41-60%; 2=21-40%; 1=0-20%).

[2] = system: Echinochloa crus-galli (ECHCG); test: Post-emergence herbicidal glasshouse test; settings: sprayed after 8 days cultivation, 250 g/ha, evaluated after 13 days, five-point scale
Method: as §1

[3] = system: Setaria faberi (SETFA); test: Post-emergence herbicidal glasshouse test; settings: sprayed after 8 days cultivation, 250 g/ha, evaluated after 13 days, five-point scale
Method: as §1

[4] = system: Amaranthus retoflexus (AMARE); test: Pre-emergence herbicidal glasshouse test; settings: sprayed after one day cultivation, 250 g/ha, evaluated after 13 days, five-point scale
Method: as §1

[5] = system: Echinochloa crus-galli (ECHCG); test: Pre-emergence herbicidal glasshouse test; settings: sprayed after one day cultivation, 250 g/ha, evaluated after 13 days, five-point scale
Method: as §1

[6] = system: Setaria faberi (SETFA); test: Pre-emergence herbicidal glasshouse test; settings: sprayed after one day cultivation, 250 g/ha, evaluated after 13 days, five-point scale
Method: as §1

Row | Structure (SMILES) | percentage damage caused to the plant, AMARE [1] | percentage damage caused to the plant, ECHCG [2] | percentage damage caused to the plant, SETFA [3] | percentage damage caused to the plant, AMARE [4] | percentage damage caused to the plant, ECHCG [5] | percentage damage caused to the plant, SETFA [6]
1 | Fc1cccc(Oc2ncc(Br)s2)c1-c1cc(C(F)F)no1 [Compound 1.004, 5-[2-(5-bromothiazol-2-yl)oxy-6-fluoro-phenyl]-3-(difluoromethyl)isoxazole] | 5 (5=81-100%) | 5 (5=81-100%) | 5 (5=81-100%) | 5 (5=81-100%) | 4 (4=61-80%) | 5 (5=81-100%)
2 | N#Cc1cccc(Oc2ncc(Br)s2)c1-c1cc(C(F)F)no1 [Compound 1.013] | 5 (5=81-100%) | 2 (2=21-40%) | 3 (3=41-60%) | 2 (2=21-40%) | 4 (4=61-80%) | 4 (4=61-80%)
3 | FC(F)c1cc(-c2c(Br)cccc2Oc2ncc(C(F)F)s2)on1 [Compound 1.020] | 4 (4=61-80%) | 4 (4=61-80%) | 5 (5=81-100%) | 1 (1=0-20%) | 5 (5=81-100%) | 5 (5=81-100%)
4 | Fc1cccc(Oc2nccs2)c1-c1cc(C(F)F)no1 [Compound 1.003] | 2 (2=21-40%) | 1 (1=0-20%) | 2 (2=21-40%) | 5 (5=81-100%) | 2 (2=21-40%) | 2 (2=21-40%)
5 | Fc1cccc(Oc2nc(Cl)c(Cl)s2)c1-c1cc(C(F)F)no1 [Compound 1.029] | 5 (5=81-100%) | 1 (1=0-20%) | 2 (2=21-40%) | 5 (5=81-100%) | 1 (1=0-20%) | 2 (2=21-40%)
6 | FC(F)c1cc(-c2ccccc2Oc2ncc(Cl)s2)on1 [Compound 1.026] | 4 (4=61-80%) | 4 (4=61-80%) | 4 (4=61-80%) | 4 (4=61-80%) | 4 (4=61-80%) | 4 (4=61-80%)
7 | Fc1cccc(Oc2nc(C(F)(F)F)cs2)c1-c1cc(C(F)F)no1 [Compound 1.033] | 4 (4=61-80%) | 4 (4=61-80%) | 4 (4=61-80%) | 5 (5=81-100%) | 4 (4=61-80%) | 5 (5=81-100%)
8 | FC(F)c1cc(-c2c(Br)cccc2Oc2ncc(Br)s2)on1 [Compound 1.024] | 5 (5=81-100%) | 5 (5=81-100%) | 5 (5=81-100%) | 4 (4=61-80%) | 5 (5=81-100%) | 4 (4=61-80%)
9 | FC(F)c1cc(-c2c(Cl)cccc2Oc2ncc(C(F)F)s2)on1 [Compound 1.019] | 4 (4=61-80%) | 4 (4=61-80%) | 5 (5=81-100%) | 2 (2=21-40%) | 5 (5=81-100%) | 5 (5=81-100%)
10 | Fc1cccc(-c2cc(C(F)F)no2)c1Oc1ncc(Cl)s1 [Compound 1.010] | 4 (4=61-80%) | 3 (3=41-60%) | 4 (4=61-80%) | 5 (5=81-100%) | 4 (4=61-80%) | 4 (4=61-80%)
11 | FC(F)c1cc(-c2c(Br)cccc2Oc2nc(Cl)c(Cl)s2)on1 [Compound 1.028] | 4 (4=61-80%) | 4 (4=61-80%) | 4 (4=61-80%) | 2 (2=21-40%) | 4 (4=61-80%) | 4 (4=61-80%)
12 | Fc1cccc(Sc2ncc(Cl)s2)c1-c1cc(C(F)F)no1 [Compound 1.031, 5-[2-(5-chlorothiazol-2-yl)sulfanyl-6-fluoro-phenyl]-3-(difluoromethyl)isoxazole] | 4 (4=61-80%) | 2 (2=21-40%) | 3 (3=41-60%) | 3 (3=41-60%) | 2 (2=21-40%) | 2 (2=21-40%)
13 | FC(F)c1cc(-c2c(Cl)cccc2Oc2ncc(Br)s2)on1 [Compound 1.025] | 5 (5=81-100%) | 5 (5=81-100%) | 5 (5=81-100%) | 5 (5=81-100%) | 5 (5=81-100%) | 5 (5=81-100%)
14 | FC(F)c1cc(-c2c(Cl)cccc2Oc2nc(Cl)c(Cl)s2)on1 [Compound 1.032] | 5 (5=81-100%) | 2 (2=21-40%) | 4 (4=61-80%) | 5 (5=81-100%) | 1 (1=0-20%) | 1 (1=0-20%)
15 | Fc1cccc(Oc2nc(C(F)F)cs2)c1-c1cc(C(F)F)no1 [Compound 1.009] | 4 (4=61-80%) | 2 (2=21-40%) | 2 (2=21-40%) | 4 (4=61-80%) | 3 (3=41-60%) | 5 (5=81-100%)
16 | Cc1cnc(Oc2cccc(F)c2-c2cc(C(F)F)no2)s1 [Compound 1.005, 3-(difluoromethyl)-5-[2-fluoro-6-(5-methylthiazol-2-yl)oxy-phenyl]isoxazole] | 4 (4=61-80%) | 4 (4=61-80%) | 4 (4=61-80%) | 5 (5=81-100%) | 3 (3=41-60%) | 4 (4=61-80%)
17 | Fc1cccc(Oc2nc(Cl)cs2)c1-c1cc(C(F)F)no1 [Compound 1.008] | 4 (4=61-80%) | 2 (2=21-40%) | 1 (1=0-20%) | 3 (3=41-60%) | 1 (1=0-20%) | 3 (3=41-60%)
18 | FC(F)c1cc(-c2c(Br)cccc2Oc2nc(C(F)F)c(Cl)s2)on1 [Compound 1.030] | 1 (1=0-20%) | 1 (1=0-20%) | 1 (1=0-20%) | 1 (1=0-20%) | 1 (1=0-20%) | 1 (1=0-20%)
19 | C=Cc1cnc(Oc2cccc(F)c2-c2cc(C(F)F)no2)s1 [Compound 1.002, 3-(difluoromethyl)-5-[2-fluoro-6-(5-vinylthiazol-2-yl)oxy-phenyl]isoxazole] | 2 (2=21-40%) | 4 (4=61-80%) | 4 (4=61-80%) | 1 (1=0-20%) | 4 (4=61-80%) | 2 (2=21-40%)
20 | Fc1cccc(Oc2nc(C(F)F)c(Cl)s2)c1-c1cc(C(F)F)no1 [Compound 1.035] | 2 (2=21-40%) | 1 (1=0-20%) | 1 (1=0-20%) | 1 (1=0-20%) | 1 (1=0-20%) | 1 (1=0-20%)
21 | N#Cc1cccc(Oc2ncc(C(F)F)s2)c1-c1cc(C(F)F)no1 [Compound 1.014] | 3 (3=41-60%) | 3 (3=41-60%) | 4 (4=61-80%) | 3 (3=41-60%) | 5 (5=81-100%) | 5 (5=81-100%)
22 | Cc1cccc(-c2cc(C(F)F)no2)c1Oc1ncc(Cl)s1 [Compound 1.011] | 2 (2=21-40%) | 3 (3=41-60%) | 3 (3=41-60%) | 4 (4=61-80%) | 4 (4=61-80%) | 1 (1=0-20%)
